Assay [1] relates to Acinetobacter calcoaceticus. Description: In vitro antimicrobial activity against Acinetobacter calcoaceticus 15473. The class given is functional.
The subject of another assay is Bacillus subtilis. The assay can be described thus: In vitro antimicrobial activity against Bacillus subtilis ATCC 6633. The class given is functional.
For the next assay, the system named is Citrobacter koseri. Description: In vitro antimicrobial activity against Citrobacter diversus 2046E. Format: functional.
Assay [2] relates to Escherichia coli. Description: In vitro antimicrobial activity against Escherichia coli 10536. Format: functional.
Assay [3] has as its system Escherichia coli. Description: In vitro antimicrobial activity against Escherichia coli 3190Y. Format: functional.
Assay [4] deals with Escherichia coli. Description: In vitro antimicrobial activity against Escherichia coli 851E. The class given is functional.
In assay [5] the test system is Escherichia coli. Description: In vitro antimicrobial activity against Escherichia coli TEM5 3739E. Format: functional.
In the next assay the test system is Enterobacter cloacae. The assay can be described thus: In vitro antimicrobial activity against Enterobacter cloacae p99. The class given is functional.
The next assay has as its system Klebsiella aerogenes. The assay can be described thus: In vitro antimicrobial activity against Klebsiella aerogenes 1076E. The class given is functional.
A further assay has as its system Micrococcus luteus. Description: In vitro antimicrobial activity against Micrococcus luteus ATCC 9341. Format: functional.
For another assay, the system named is Pseudomonas aeruginosa. Description: In vitro antimicrobial activity against Pseudomonas aeruginosa 1012E. The class given is functional.
The next assay has as its system Salmonella typhimurium. Description: In vitro antimicrobial activity against Salmonella Typhimurium 14028. The settings on record: Salmonella enterica. The class given is functional, Salmonella enterica subsp. enterica serovar Typhimurium.
Assay [6] deals with Staphylococcus epidermidis. The assay can be described thus: In vitro antimicrobial activity against Staphylococcus epidermis 178. Format: functional.
The subject of assay [7] is Staphylococcus epidermidis. The assay can be described thus: In vitro antimicrobial activity against Staphylococcus epidermis 887E. Format: functional.
Assay [8] has as its system Staphylococcus aureus. Description: In vitro antimicrobial activity against Staphylococcus aureus 241. The class given is functional.
Assay [9] deals with Staphylococcus aureus. The assay can be described thus: In vitro antimicrobial activity against Staphylococcus aureus 77. Format: functional.
The subject of assay [10] is Staphylococcus aureus. Description: In vitro antimicrobial activity against Staphylococcus aureus giorgio. The class given is functional.
The test system of assay [11] is Escherichia coli. The assay can be described thus: In vitro antimicrobial activity against Escherichia coli 10536.

Data on 5 compounds can be found in ChEMBL document CHEMBL1130731, “Methyloxime-substituted aminopyrrolidine: a new surrogate for 7-basic group of quinolone” (Bioorg Med Chem Lett, 1998).

Structures are written as SMILES. Values after ≈ are worked out from the molar mass of the structure shown.

One may read the MIC as the least concentration at which growth counts as inhibited.

For the compound `CO/N=C1\CN(c2c(F)c(N)c3c(=O)c(C(=O)O)cn(C4CC4)c3c2F)CC1N` (stereo not given), the MIC in assay [1] is 0.031 µg/mL (≈ 0.0761 µM); with Bacillus subtilis, not above 0.008 µg/mL; in the assay with Citrobacter koseri, 0.063 µg/mL (≈ 0.155 µM); against Escherichia coli [2], not above 0.008 µg/mL; against Escherichia coli [3], not above 0.008 µg/mL; with Escherichia coli [4] it was 0.031 µg/mL (≈ 0.0761 µM). Besides, the MIC with Escherichia coli [5] is 0.13 µg/mL (≈ 0.319 µM); against Enterobacter cloacae it was not above 0.008 µg/mL; against Klebsiella aerogenes, 0.25 µg/mL (≈ 0.614 µM); in the assay on Micrococcus luteus, 0.5 µg/mL (≈ 1.23 µM); in the assay on Pseudomonas aeruginosa, 1 µg/mL (≈ 2.45 µM); against Salmonella typhimurium, 0.063 µg/mL (≈ 0.155 µM). The MIC in [6] was 2 µg/mL (≈ 4.91 µM); in assay [7], 0.016 µg/mL (≈ 0.0393 µM); in the assay with Staphylococcus aureus [8], 2 µg/mL (≈ 4.91 µM); in the assay with Staphylococcus aureus [9], 0.031 µg/mL (≈ 0.0761 µM); against Staphylococcus aureus [10], not above 0.008 µg/mL.
As to `NC1CN(c2c(F)cc3c(=O)c(C(=O)O)cn(C4CC4)c3c2F)C/C1=N\OCCF` (stereo not given), the MIC in [1] was 0.13 µg/mL (≈ 0.306 µM); in the assay with Bacillus subtilis it was 0.016 µg/mL (≈ 0.0377 µM); against Citrobacter koseri, 0.13 µg/mL (≈ 0.306 µM); in the assay with Escherichia coli [2], 0.031 µg/mL (≈ 0.073 µM); in the assay on Escherichia coli [3] it was 0.016 µg/mL (≈ 0.0377 µM); against Escherichia coli [4] it was 0.031 µg/mL (≈ 0.073 µM). Further, the MIC against Escherichia coli [5] was 0.25 µg/mL (≈ 0.589 µM); in the assay on Enterobacter cloacae it was 0.016 µg/mL (≈ 0.0377 µM); against Klebsiella aerogenes, 0.25 µg/mL (≈ 0.589 µM); in the assay on Micrococcus luteus, 0.25 µg/mL (≈ 0.589 µM); in the assay on Pseudomonas aeruginosa it was 2 µg/mL (≈ 4.71 µM); against Salmonella typhimurium, 0.13 µg/mL (≈ 0.306 µM). Moreover, the MIC in assay [6] was found to be 2 µg/mL (≈ 4.71 µM); in assay [7], 0.063 µg/mL (≈ 0.148 µM); against Staphylococcus aureus [8] it was 2 µg/mL (≈ 4.71 µM); in the assay with Staphylococcus aureus [9] it was 0.063 µg/mL (≈ 0.148 µM); with Staphylococcus aureus [10], 0.031 µg/mL (≈ 0.073 µM).
For `CNC1CN(c2nc3c(cc2F)c(=O)c(C(=O)O)cn3C2CC2)C/C1=N\OC` (stereo not given), the MIC in assay [1] was 0.13 µg/mL (≈ 0.334 µM); with Bacillus subtilis, not above 0.008 µg/mL; in the assay on Citrobacter koseri, 0.13 µg/mL (≈ 0.334 µM); against Escherichia coli [2], not above 0.008 µg/mL; against Escherichia coli [3] it was not above 0.008 µg/mL; with Escherichia coli [4], 0.063 µg/mL (≈ 0.162 µM). Further, the minimum inhibitory concentration (MIC) was 1 µg/mL (≈ 2.57 µM) in the assay on Escherichia coli [5]; not above 0.008 µg/mL against Enterobacter cloacae; 0.5 µg/mL (≈ 1.28 µM) against Klebsiella aerogenes; 2 µg/mL (≈ 5.14 µM) in the assay on Micrococcus luteus; 4 µg/mL (≈ 10.3 µM) with Pseudomonas aeruginosa; 0.25 µg/mL (≈ 0.642 µM) against Salmonella typhimurium. In addition, the MIC in assay [6] turned out to be 32 µg/mL (≈ 82.2 µM); in assay [7], 0.063 µg/mL (≈ 0.162 µM); in the assay with Staphylococcus aureus [8] it was 16 µg/mL (≈ 41.1 µM); in the assay on Staphylococcus aureus [9] it was 0.063 µg/mL (≈ 0.162 µM); in the assay with Staphylococcus aureus [10], 0.031 µg/mL (≈ 0.0796 µM).
On to `CO/N=C1/CN(c2c(F)cc3c(=O)c(C(=O)O)cn(C4CC4)c3c2Cl)CC1N` (stereo not given), for which the MIC in assay [1] was 0.031 µg/mL (≈ 0.0758 µM); in the assay on Bacillus subtilis, not above 0.008 µg/mL; with Citrobacter koseri, 0.063 µg/mL (≈ 0.154 µM); in the assay with Escherichia coli [3], not above 0.008 µg/mL; with Escherichia coli [4] it was 0.031 µg/mL (≈ 0.0758 µM); against Escherichia coli [5], 0.25 µg/mL (≈ 0.612 µM). Also, the MIC with Enterobacter cloacae was determined as 0.016 µg/mL (≈ 0.0391 µM); against Klebsiella aerogenes it was 0.25 µg/mL (≈ 0.612 µM); against Micrococcus luteus it was 0.13 µg/mL (≈ 0.318 µM); with Pseudomonas aeruginosa, 2 µg/mL (≈ 4.89 µM); against Salmonella typhimurium it was 0.13 µg/mL (≈ 0.318 µM); in assay [6] it was 0.5 µg/mL (≈ 1.22 µM). In addition, the MIC worked out at 0.016 µg/mL (≈ 0.0391 µM) in assay [7]; 0.5 µg/mL (≈ 1.22 µM) with Staphylococcus aureus [8]; 0.016 µg/mL (≈ 0.0391 µM) against Staphylococcus aureus [9]; 0.016 µg/mL (≈ 0.0391 µM) against Staphylococcus aureus [10]; 0.016 µg/mL (≈ 0.0391 µM) against Escherichia coli [11].
Take `NC1CN(c2c(F)cc3c(=O)c(C(=O)O)cn(C4CC4)c3c2F)C/C1=N\O` (stereo not given): the MIC in assay [1] is 0.5 µg/mL (≈ 1.32 µM); in the assay with Bacillus subtilis, 0.063 µg/mL (≈ 0.167 µM); in the assay on Citrobacter koseri, 0.13 µg/mL (≈ 0.344 µM); in the assay on Escherichia coli [2], 0.016 µg/mL (≈ 0.0423 µM); in the assay on Escherichia coli [3] it was not above 0.008 µg/mL; against Escherichia coli [4], 0.031 µg/mL (≈ 0.0819 µM). Also, the MIC turned out to be 0.5 µg/mL (≈ 1.32 µM) with Escherichia coli [5]; 0.031 µg/mL (≈ 0.0819 µM) against Enterobacter cloacae; 0.5 µg/mL (≈ 1.32 µM) in the assay on Klebsiella aerogenes; 0.25 µg/mL (≈ 0.661 µM) against Micrococcus luteus; 1 µg/mL (≈ 2.64 µM) against Pseudomonas aeruginosa; 0.63 µg/mL (≈ 1.67 µM) in the assay on Salmonella typhimurium. The MIC in assay [6] is 64 µg/mL (≈ 169 µM); in assay [7] it was 0.13 µg/mL (≈ 0.344 µM); with Staphylococcus aureus [8] it was 32 µg/mL (≈ 84.6 µM); against Staphylococcus aureus [9] it was 0.063 µg/mL (≈ 0.167 µM); in the assay with Staphylococcus aureus [10], 0.063 µg/mL (≈ 0.167 µM).
